Laboratory results from patent US20060270694A1, “JAK kinase inhibitors and their uses” (Rigel Pharmaceuticals, Inc., priority 2005, published 2006).

tested on: JAK kinase (JAK1 and JAK3); assay: IL-4 activation assay: CD23 upregulation in IL-4 stimulated Ramos B-cells, FACS; assay type: cell-based, human; details: TABLE 2; IC50 CHMC degranulation (tryptase) / IC50 IL-4 Ramos CD23
Description: The selectivity of the compounds illustrated in TABLES 1 and 2 for JAK kinases as compared to Syk kinase was confirmed in cellular assays designed to test for JAK and Syk inhibition. Briefly, JAK inhibition was tested in human Ramos B-cells activated with IL-4. Twenty to 24 hours post stimulation, the cells are stained for upregulation of CD23 and analyzed by FACS. Stimulation of the B-cells with IL-4 leads to the activation of the JAK/STAT pathway through phosphorylation of the JAK kinase JAK1 and JAK3, which in turn phosphorylate and activate transcription of factor […].
For the assay, human Ramos B-cells (ATCC, Catalog No. CRL-1596) are cultured in RPMI 1640 medium (Cellgro, Catalog No. 10-040-CM) containing 10% fetal bovine serum (JRH, Catalog No. 12106-500M) according to the propagation protocol supplied with the cells, and maintained at a density of approximately 3.5×10^5 cells/ml. The day before the assay, the cells are diluted to 3.5×10^5 cells/ml to insure they are in the logorithmic growth phase. The cells are spun down, and suspended in RPMI 1640 medium containing 5% fetal bovine serum to a density of 3.5×10^4 cells/ml and aliquots dispensed into a 96-well tissue culture plate. Cells are incubated with test compound (dissolved in DMSO) or DMSO (control) for 1 hr at 37° C. and then stimulated with IL-4 (Pepotech, Catalog No. 200-04) for 20-24 hours (final concentration is 50 Units/ml). Cells are then spun down, stained with anti-CD23-PE antibody (BD Pharmigen, Catalog No.555711) and analyzed by FACS.

SMILES	IC50 Ratio (Syk/JAK)
O=[N+]([O-])c1cc(Nc2ccnc(Nc3ccc(Cl)c([N+](=O)[O-])c3)n2)ccc1Cl [Cmpd 62]	19
COc1ccc(Nc2nc(Nc3cccc(-c4nnc(C(C)(C)C)o4)c3)ncc2F)cc1OC [Cmpd 63]	19
CS(=O)(=O)Nc1ccc(Nc2ncc(F)c(Nc3ccc(NS(C)(=O)=O)cc3)n2)cc1 [Cmpd 64]	19
CNC(=O)COc1cccc(Nc2ncc(F)c(Nc3ccc(OC)c(C(=O)OC)c3)n2)c1 [Cmpd 68]	16
Cc1cc(Nc2ncc(F)c(NC3C=C[C@@H](C(N)=O)C3)n2)ccc1N1CCN(C)CC1 (stereo partly drawn) [Cmpd 69]	16
CNC(=O)COc1cccc(Nc2ncc(F)c(Nc3cccc(OC(=O)N(C(=O)NC(C)C)C(C)C)c3)n2)c1 [Cmpd 71]	15
CN1CCN(c2ccc(Nc3ncc(F)c(NC4CCCC4)n3)cc2Cl)CC1 [Cmpd 72]	14
O=C(Nc1ccc(Nc2ncc(F)c(NC3CCCCC3)n2)cc1)c1ccccc1 [Cmpd 74]	14
COc1ccc(Nc2ncc(F)c(Nc3ccc4c(c3)NC(=O)CO4)n2)cc1Cl [Cmpd 75]	14
COc1cc(Nc2nc(Nc3ccc(CN)cc3)ncc2F)cc(OC)c1 [Cmpd 76]	14
Cc1cc(Nc2ncc(F)c(NC3CCCC3)n2)cnc1N1CCN(C)CC1 [Cmpd 77]	13
COc1ccc(Nc2nc(Nc3cc(Cl)c(O)c(Cl)c3)ncc2F)cc1Cl [Cmpd 80]	11
CNC(=N)COc1ccc(Nc2nc(Nc3ccc4c(c3)OCCO4)ncc2F)cc1 [Cmpd 81]	11
COc1ccc(Nc2nc(Nc3ccc(C(N)=O)c(Cl)c3)ncc2F)cc1Cl [Cmpd 83]	10
CNC(=O)Cn1ncc2ccc(Nc3nc(Nc4ccc5c(c4)OCCO5)ncc3F)cc21 [Cmpd 84]	10
CNS(=O)(=O)c1ccc(Nc2ncc(F)c(Nc3ccc(OC)c(OC)c3)n2)cc1OC [Cmpd 85]	10
CNC(=O)COc1cccc(Nc2ncc(F)c(Nc3ccc4c(c3)C(N(C)C(=O)OC(C)(C)C)CCO4)n2)c1 (stereo not drawn) [Cmpd 86]	10
CN1CCN(c2ccc(Nc3ncc(F)c(NC4CCCC4C(N)=O)n3)cc2Cl)CC1 (stereo not drawn) [Cmpd 87]	10
Cc1cc(Nc2nc(Nc3ccc(C(N)=O)c(Cl)c3)ncc2F)ccc1N1CCN(C)CC1 [Cmpd 89]	10

Second part, the compound after the results:

IC50 Ratio (Syk/JAK)	SMILES
20	NC(=O)c1ccc(Nc2ncc(F)c(Nc3ccc4c(c3)NC(=O)C(CCO)O4)n2)cc1 (stereo not drawn) [Cmpd 60]
20	COC(=O)c1ccc(Nc2ncc(F)c(Nc3ccc(C(=O)OC)cc3)n2)cc1 [Cmpd 61]
18	CCN(CC)CNC(=O)c1ccc(Nc2ncc(F)c(Nc3ccc4c(c3)C(=O)NC(=O)C4(C)C)n2)cc1 [Cmpd 65]
17	CNC(=O)CNC(=O)c1ccc(Nc2ncc(F)c(Nc3ccc(OC)c(Cl)c3)n2)cc1 [Cmpd 66]
17	COC(=O)CNC(=O)c1ccc(Nc2ncc(F)c(Nc3ccc(OCc4nc(C)no4)cc3)n2)cc1 [Cmpd 67]
15	CNC(=O)CNC(=O)c1ccc(Nc2ncc(F)c(Nc3ccc4c(c3)NC(=O)C(C)(C)O4)n2)cc1 [Cmpd 70]
14	COC(=O)CNC(=O)c1ccc(Nc2ncc(F)c(Nc3ccc(C(N)=O)cc3)n2)cc1 [Cmpd 73]
13	Cc1noc(COc2ccc(Nc3nc(Nc4ccc(C(N)=O)c(O)c4)ncc3F)cc2)n1 [Cmpd 78]
12	O=C1Nc2cc(Nc3nc(Nc4ccc(-c5cnco5)cc4)ncc3F)ccc2OC1CCO (stereo not drawn) [Cmpd 79]
10	Cc1noc(COc2ccc(Nc3nc(Nc4ccc(C(N)=O)cc4)ncc3F)cc2)n1 [Cmpd 82]
10	COC(=O)CNC(=O)c1ccc(Nc2nc(Nc3cccc(O)c3)ncc2F)cc1 [Cmpd 88]
